Measurements: patent US20260356860A1, “2-SUBSTITUTED 3,4A,5,7,8,8A-HEXAHYDRO-4H-THIOPYRANO[4,3-DJPYRIMIDIN-4-ONES FOR WOUND TREATMENT” (priority 2022, published 2026)

Molecular target: T1, Tankyrase 2 (TNKS2) (Homo sapiens, UniProt Q9H2K2)
T1 sequence (Q9H2K2 1-1166): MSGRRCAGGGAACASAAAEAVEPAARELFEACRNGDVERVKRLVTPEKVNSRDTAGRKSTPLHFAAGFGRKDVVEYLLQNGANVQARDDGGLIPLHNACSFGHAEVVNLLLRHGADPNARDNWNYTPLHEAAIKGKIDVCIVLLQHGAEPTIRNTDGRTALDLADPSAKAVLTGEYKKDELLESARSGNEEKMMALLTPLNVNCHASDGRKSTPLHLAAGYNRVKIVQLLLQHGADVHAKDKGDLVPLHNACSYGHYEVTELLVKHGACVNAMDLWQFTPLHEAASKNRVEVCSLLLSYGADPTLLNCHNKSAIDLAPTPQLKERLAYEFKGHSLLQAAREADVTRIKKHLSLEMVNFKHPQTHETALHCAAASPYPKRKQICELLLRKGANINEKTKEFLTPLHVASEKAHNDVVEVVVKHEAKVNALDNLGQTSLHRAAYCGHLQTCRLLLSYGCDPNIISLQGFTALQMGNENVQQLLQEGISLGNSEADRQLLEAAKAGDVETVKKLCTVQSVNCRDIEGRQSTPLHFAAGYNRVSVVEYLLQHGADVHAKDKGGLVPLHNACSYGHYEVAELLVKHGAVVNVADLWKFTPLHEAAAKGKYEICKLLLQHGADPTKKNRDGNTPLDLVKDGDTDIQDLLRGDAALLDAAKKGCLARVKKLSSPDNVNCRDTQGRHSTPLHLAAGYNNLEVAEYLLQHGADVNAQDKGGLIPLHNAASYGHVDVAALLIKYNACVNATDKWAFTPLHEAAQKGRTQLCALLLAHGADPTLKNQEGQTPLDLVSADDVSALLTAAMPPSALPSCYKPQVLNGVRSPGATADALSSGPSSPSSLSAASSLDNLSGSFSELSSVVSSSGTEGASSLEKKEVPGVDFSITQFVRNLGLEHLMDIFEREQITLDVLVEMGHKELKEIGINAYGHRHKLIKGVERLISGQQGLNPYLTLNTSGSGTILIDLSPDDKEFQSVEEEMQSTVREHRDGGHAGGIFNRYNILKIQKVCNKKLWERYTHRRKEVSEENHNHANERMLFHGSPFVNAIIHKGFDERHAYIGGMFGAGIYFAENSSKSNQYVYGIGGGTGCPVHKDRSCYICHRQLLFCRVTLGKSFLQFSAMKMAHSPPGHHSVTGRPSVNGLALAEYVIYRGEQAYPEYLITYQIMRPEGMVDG
Test: TNK2 Binding Assay (Tankyrase 2 ribosylation, chemiluminescence)
Format: biochemical
Procedure: Tankyrase 2 assay (n=3) was performed with the following steps: step 1, coating a 96-well plate with 50 μL/well of histone solution; step 2, conducting ribosylation reaction; and step 3, detection.
Step 1: Coating a 96-Well Plate with 50 μL/Well of Histone Solution.
A 5× histone mixture was diluted 1:5 with PBS to make a 1× histone in PBS mixture. 50 μL of the histone mixture was added to each well and incubated at 4° C. overnight. The plate was washed three times using 200 μL PBST buffer (1×PBS containing 0.05% Tween*20 (polysorbate 20) per well. The plate was tapped onto a clean paper towel to remove the liquid. The wells were blocked by adding 200 μL of blocking buffer 3 to each well. The plate was incubated at room temperature for at least 90 minutes. The plate was washed three times with 200 μL PBST buffer. The plate was tapped onto a clean paper towel to remove the liquid.
A fresh solution of 10 mM DTT in water was prepared.
A master mix was prepared and delivered to each well (25 μL/well). Master mix delivered to each well: (2.5 μL of 10×PARP assay buffer (purchased from BPS Bioscience)+2.5 μL of PARP substrate mixture 2+17.5 μL of water+2.5 μL of 10 mM fresh DTT). The concentration of DTT in the master mix was 1 mM. 25 μL of master mix was added to each well.
1×PARP buffer with DTT was prepared. 10×PARP assay buffer was diluted to 1×PARP assay buffer containing DTT by adding 1 volume of 10×PARP assay buffer+1 volume of 10 mM DTT+8 volumes of water. The concentration of DTT in the 1×PARP assay buffer was 1 mM.
5 μL of a test inhibitor was added to each well labeled as “Test Inhibitor.” For the “Positive Control,” the PARP inhibitor, XAV939, was used. For the negative control, no inhibitor is added to the assay mix.
The Tankyrase 2 (TNKS2) enzyme on ice was thawed. The tube containing the enzyme was spun briefly to recover the full content of the tube. The amount of TNKS2 enzyme required for the assay was calculated and the enzyme was diluted to 0.5 ng/μL with 1×PARP assay buffer with DTT. 16) The final concentration of TNKS2 enzyme in the assay was 2 nM. The reaction was initiated by adding 10 μL of diluted TNKS2 enzyme to each well designated “Positive Control” and “Test Inhibitor.” To each well designated as “Blank,” 10 μL of 1×PARP assay buffer with DTT was added. The plate was incubated at room temperature for 1 hour. The plate was washed three times with 100 μL of PBST buffer and the plate was tapped onto a clean paper towel.
1) Streptavidin-HRP was diluted 1:50 in Blocking buffer (purchased from BPS Bioscience) 3.50 μL of diluted Streptavidin-RP was added to each well and incubated for 30 minutes at room temperature. The plate was washed three times with 100 μL of PBST buffer and tapped onto a clean paper towel. Just before use, 1 volume of ELISA ECL Substrate A and 1 volume of ELISA ECL Substrate B were mixed on ice; and 100 μL was added to each well. Immediately, the plate was read in a luminometer or microtiter-plate reader capable of reading chemiluminescence. The “Blank” value was subtracted from all other values.

IC50 [nM] | SMILES
630 | CC1(C)OB(O)c2ccc(-c3nc4c(c(=O)[nH]3)CSCC4)cc21 [Compound 44, 2-(1-hydroxy-3,3-dimethyl-1,3-dihydrobenzo[c][1,2]oxaborol-5-yl)-3,5,7,8-tetrahydro-4H-thiopyrano[4,3-d]pyrimidin-4-one]
13 | COC(=O)NCCOC(C)(C)c1ccc(-c2nc3c(c(=O)[nH]2)CSCC3)cc1C [Compound 35, methyl (2-((2-(2-methyl-4-(4-oxo-3,5,7,8-tetrahydro-4H-thiopyrano[4,3-d]pyrimidin-2-yl)phenyl)propan-2-yl)oxy)ethyl)carbamate]
164 | COC(=O)NCCOC(C)(C)c1ccc(-c2nc3c(c(=O)[nH]2)CSCC3)cc1OC [Compound 34, methyl (2-((2-(2-methoxy-4-(4-oxo-3,5,7,8-tetrahydro-4H-thiopyrano[4,3-d]pyrimidin-2-yl)phenyl)propan-2-yl)oxy)ethyl)carbamate]
29 | N#Cc1cc(-c2ccc(B(O)O)cc2)ccc1-c1nc2c(c(=O)[nH]1)CSCC2 [Compound 36, (3′-cyano-4′-(4-oxo-3,5,7,8-tetrahydro-4H-thiopyrano[4,3-d]pyrimidin-2-yl)-[1,1′-biphenyl]-4-yl)boronic acid]
443 | O=c1[nH]c(-c2ccc(B(O)O)cc2Cl)nc2c1CSCC2 [Compound 40, (3-chloro-4-(4-oxo-3,5,7,8-tetrahydro-4H-thiopyrano[4,3-d]pyrimidin-2-yl)phenyl)boronic acid]
3530 | O=c1[nH]c(-c2ccc(B(O)O)cc2O)nc2c1CSCC2 [Compound 31, (3-hydroxy-4-(4-oxo-3,5,7,8-tetrahydro-4H-thiopyrano[4,3-d]pyrimidin-2-yl)phenyl)boronic acid]
20 | O=c1[nH]c(-c2ccc(B(O)O)c(O)c2)nc2c1CSCC2 [Compound 30, (2-hydroxy-4-(4-oxo-3,5,7,8-tetrahydro-4H-thiopyrano[4,3-d]pyrimidin-2-yl)phenyl)boronic acid]
12 | COC(=O)NCCOC(C)(C)c1ccc(-c2nc3c(c(=O)[nH]2)CSCC3)cc1O [Compound 33, methyl (2-((2-(2-hydroxy-4-(4-oxo-3,5,7,8-tetrahydro-4H-thiopyrano[4,3-d]pyrimidin-2-yl)phenyl)propan-2-yl)oxy)ethyl)carbamate]
111 | COc1cc(-c2nc3c(c(=O)[nH]2)CSCC3)ccc1B(O)O [Compound 32, (2-methoxy-4-(4-oxo-3,5,7,8-tetrahydro-4H-thiopyrano[4,3-d]pyrimidin-2-yl)phenyl)boronic acid]
14 | O=c1[nH]c(-c2ccc(-c3ccnc(Br)c3)cc2)nc2c1CSCC2 [Compound 23, 2-(4-(2-bromopyridin-4-yl)phenyl)-3,5,7,8-tetrahydro-4H-thiopyrano[4,3-d]pyrimidin-4-one]
9.7 | O=c1[nH]c(N2CCN(c3c(F)cc(OCCO)cc3F)CC2)nc2c1CSCC2 [Compound 42, 2-(4-(2,6-difluoro-4-(2-hydroxyethoxy)phenyl)piperazin-1-yl)-3,5,7,8-tetrahydro-4H-thiopyrano[4,3-d]pyrimidin-4-one]
4 | O=c1[nH]c(-c2ccc(-c3ccc(Br)nc3)c(F)c2)nc2c1CSCC2 [Compound 20, 2-(4-(6-bromopyridin-3-yl)-3-fluorophenyl)-3,5,7,8-tetrahydro-4H-thiopyrano[4,3-d]pyrimidin-4-one]
72 | COC(=O)NCCOC(C)(C)c1ccc(-c2nc3c(c(=O)[nH]2)CSCC3)c(C#N)c1 [Compound 38, methyl (2-((2-(3-cyano-4-(4-oxo-3,5,7,8-tetrahydro-4H-thiopyrano[4,3-d]pyrimidin-2-yl)phenyl)propan-2-yl)oxy)ethyl)carbamate]
16 | N#Cc1cc(B(O)O)ccc1-c1nc2c(c(=O)[nH]1)CSCC2 [Compound 37, (3-cyano-4-(4-oxo-3,5,7,8-tetrahydro-4H-thiopyrano[4,3-d]pyrimidin-2-yl)phenyl)boronic acid]
